Assay results: ChEMBL document CHEMBL1132005, “Structure-activity relationship in two series of aminoalkyl substituted coumarin inhibitors of gyrase B” (1999)
Values after ≈ are worked out from the molar mass of the structure shown.

Experiments:
Enterococcus faecium = assay: In vitro antibacterial activity against Enterococcus faecium 02D31P2 VanTeiEry-R; format: functional
[1] = biological target: DNA gyrase (Escherichia coli) (UniProt P0AES6+P0AES4); assay: In vitro inhibition of supercoiling activity of Escherichia coli DNA gyrase as the ratio of IC50 of Novobiocin and IC50 of compound; format: protein-complex assay
[2] = test system: Staphylococcus epidermidis; assay: In vitro antibacterial activity against Staphylococcus epidermidis 012GO39 OxaTei-R; format: functional
Staphylococcus aureus [3] = assay: In vitro antibacterial activity against Staphylococcus aureus 011GO76 OfloOxaEry-R; format: functional
Staphylococcus aureus [4] = assay: In vitro antibacterial activity against Staphylococcus aureus 011HT1 Nov-R; format: functional
Staphylococcus aureus [5] = assay: In vitro antibacterial activity against Staphylococcus aureus 011HT3; format: functional
Streptococcus pyogenes = assay: In vitro antibacterial activity against Streptococcus pyogenes O2A1UC1

Row | MIC (Enterococcus faecium) [µg/mL] | Ratio [1] | MIC [2] [µg/mL] | MIC (Staphylococcus aureus [3]) [µg/mL] | MIC (Staphylococcus aureus [4]) [µg/mL] | MIC (Staphylococcus aureus [5]) [µg/mL] | MIC (Streptococcus pyogenes) [µg/mL] | SMILES
1 | 20 (≈ 35 µM) | 0.22 | 0.6 (≈ 1.05 µM) | 1.2 (≈ 2.1 µM) | 20 (≈ 35 µM) | 0.6 (≈ 1.05 µM) | 2.5 (≈ 4.38 µM) | CO[C@@H]1[C@@H](OC(=O)c2ccc(C)[nH]2)[C@@H](O)[C@H](Oc2ccc3c(CN4CCC(O)CC4)cc(=O)oc3c2C)OC1(C)C
2 | > 40 | 1 | 2.5 (≈ 4.28 µM) | 10 (≈ 17.1 µM) | > 40 | 5 (≈ 8.57 µM) | 20 (≈ 34.3 µM) | CCN1CCN(Cc2cc(=O)oc3c(C)c(O[C@@H]4OC(C)(C)[C@H](OC)[C@@H](OC(=O)c5ccc(C)[nH]5)[C@H]4O)ccc23)CC1
3 | 10 (≈ 17.6 µM) | 0.57 | < 0.04 | 10 (≈ 17.6 µM) | 20 (≈ 35.2 µM) | 0.3 (≈ 0.528 µM) | 1.2 (≈ 2.11 µM) | CO[C@@H]1[C@@H](OC(=O)c2ccc(C)[nH]2)[C@@H](O)[C@H](Oc2ccc3c(OCCn4cncn4)cc(=O)oc3c2C)OC1(C)C
4 | > 40 | 1.8 | 5 (≈ 10.3 µM) | 40 (≈ 82.2 µM) | > 40 | 10 (≈ 20.6 µM) | 40 (≈ 82.2 µM) | CO[C@@H]1[C@@H](OC(=O)c2ccc(C)[nH]2)[C@@H](O)[C@H](Oc2ccc3c(CN)cc(=O)oc3c2C)OC1(C)C
5 | 20 (≈ 38.7 µM) | 0.81 | 1.2 (≈ 2.32 µM) | 5 (≈ 9.68 µM) | 20 (≈ 38.7 µM) | 2.5 (≈ 4.84 µM) | 5 (≈ 9.68 µM) | CO[C@@H]1[C@@H](OC(=O)c2ccc(C)[nH]2)[C@@H](O)[C@H](Oc2ccc3c(OCCN)cc(=O)oc3c2C)OC1(C)C
6 | 20 (≈ 33.3 µM) | 0.66 | 2.5 (≈ 4.16 µM) |  | 40 (≈ 66.6 µM) | 0.6 (≈ 0.999 µM) | 5 (≈ 8.32 µM) | CO[C@@H]1[C@@H](OC(=O)c2ccc(C)[nH]2)[C@@H](O)[C@H](Oc2ccc3c(OCCN4CCC[C@H]4CO)cc(=O)oc3c2C)OC1(C)C
7 | > 40 | 2.3 | 1.2 (≈ 2.26 µM) | 2.5 (≈ 4.71 µM) | 20 (≈ 37.7 µM) | 2.5 (≈ 4.71 µM) | 5 (≈ 9.42 µM) | CNCCOc1cc(=O)oc2c(C)c(O[C@@H]3OC(C)(C)[C@H](OC)[C@@H](OC(=O)c4ccc(C)[nH]4)[C@H]3O)ccc12
8 | 5 (≈ 7.56 µM) | 0.33 | 0.6 (≈ 0.907 µM) | 10 (≈ 15.1 µM) | 5 (≈ 7.56 µM) | 0.3 (≈ 0.453 µM) | 1.2 (≈ 1.81 µM) | CO[C@@H]1[C@@H](OC(=O)c2ccc(C)[nH]2)[C@@H](O)[C@H](Oc2ccc3c(OCCN4CCNC(c5ccccc5)C4)cc(=O)oc3c2C)OC1(C)C (some centres undefined)
9 | 5 (≈ 7.91 µM) | 0.17 | 0.6 (≈ 0.95 µM) | 5 (≈ 7.91 µM) | 5 (≈ 7.91 µM) | 1.2 (≈ 1.9 µM) | 1.2 (≈ 1.9 µM) | CO[C@@H]1[C@@H](OC(=O)c2ccc(C)[nH]2)[C@@H](O)[C@H](Oc2ccc3c(CN4CCNCC4c4ccccc4)cc(=O)oc3c2C)OC1(C)C (some centres undefined)
10 | 20 (≈ 35.1 µM) | 0.35 | 0.6 (≈ 1.05 µM) | 10 (≈ 17.6 µM) | 20 (≈ 35.1 µM) | 0.6 (≈ 1.05 µM) | 2.5 (≈ 4.39 µM) | CO[C@@H]1[C@@H](OC(=O)c2ccc(C)[nH]2)[C@@H](O)[C@H](Oc2ccc3c(CSc4ncc[nH]4)cc(=O)oc3c2C)OC1(C)C
11 | > 40 | 0.5 | 2.5 (≈ 4.62 µM) | 5 (≈ 9.25 µM) | 40 (≈ 74 µM) | 2.5 (≈ 4.62 µM) | 10 (≈ 18.5 µM) | CO[C@@H]1[C@@H](OC(=O)c2ccc(C)[nH]2)[C@@H](O)[C@H](Oc2ccc3c(CN4CCCC4)cc(=O)oc3c2C)OC1(C)C
12 | > 40 | 1 | 1.2 (≈ 2.23 µM) | 5 (≈ 9.3 µM) | > 40 | 1.2 (≈ 2.23 µM) | 5 (≈ 9.3 µM) | CO[C@@H]1[C@@H](OC(=O)c2ccc(C)[nH]2)[C@@H](O)[C@H](Oc2ccc3c(Cn4ccnc4)cc(=O)oc3c2C)OC1(C)C
13 | > 40 | 0.46 | 2.5 (≈ 4.39 µM) | 5 (≈ 8.78 µM) | 40 (≈ 70.2 µM) | 5 (≈ 8.78 µM) | 10 (≈ 17.6 µM) | CO[C@@H]1[C@@H](OC(=O)c2ccc(C)[nH]2)[C@@H](O)[C@H](Oc2ccc3c(CN4CCN(C)CC4)cc(=O)oc3c2C)OC1(C)C
14 | 40 (≈ 74.3 µM) | 0.4 | 0.6 (≈ 1.11 µM) | 2.5 (≈ 4.64 µM) | 40 (≈ 74.3 µM) | 1.2 (≈ 2.23 µM) | 2.5 (≈ 4.64 µM) | CO[C@@H]1[C@@H](OC(=O)c2ccc(C)[nH]2)[C@@H](O)[C@H](Oc2ccc3c(Cn4cncn4)cc(=O)oc3c2C)OC1(C)C
15 | > 40 | 0.33 | 5 (≈ 8.63 µM) | 20 (≈ 34.5 µM) | > 40 | 10 (≈ 17.3 µM) | 40 (≈ 69.1 µM) | CO[C@@H]1[C@@H](OC(=O)c2ccc(C)[nH]2)[C@@H](O)[C@H](Oc2ccc3c(OCCN(C)C)c(Cl)c(=O)oc3c2C)OC1(C)C

Row | SMILES | MIC (Enterococcus faecium) [µg/mL] | Ratio [1] | MIC [2] [µg/mL] | MIC (Staphylococcus aureus [3]) [µg/mL] | MIC (Staphylococcus aureus [4]) [µg/mL] | MIC (Staphylococcus aureus [5]) [µg/mL] | MIC (Streptococcus pyogenes) [µg/mL]
16 | CO[C@@H]1[C@@H](OC(=O)c2ccc(C)[nH]2)[C@@H](O)[C@H](Oc2ccc3c(O)c(NC(=O)c4ccc(O)c(CC=C(C)C)c4)c(=O)oc3c2Cl)OC1(C)C [CHLOROBIOCIN] |  |  | < 0.04 | < 0.04 | 0.15 (≈ 0.215 µM) | < 0.04 | < 0.04
